# From paper PMC2430034, “Structural Development Studies of Subtype-Selective Ligands for Peroxisome Proliferator-Activated Receptors (PPARs) Based on the 3,4-Disubstituted Phenylpropanoic Acid Scaffold as a Versatile Template” (PPAR Research, 2008)
# Like-named read-outs stand apart in the source and are kept apart here.
# Tests used:
# Format in all cases: cell-based
# PPARδ [1] = target: T1, PPARδ (Homo sapiens, UniProt Q03181); assay: cell-based; details: PPAR-GAL4 chimeric receptors, transiently transfected CHO-K1 cells, ia = inactive at 10 μM; for EC50: read-out: Transactivation activity EC50 PPARδ
# T1 sequence (Q03181 211-441 limits assumed): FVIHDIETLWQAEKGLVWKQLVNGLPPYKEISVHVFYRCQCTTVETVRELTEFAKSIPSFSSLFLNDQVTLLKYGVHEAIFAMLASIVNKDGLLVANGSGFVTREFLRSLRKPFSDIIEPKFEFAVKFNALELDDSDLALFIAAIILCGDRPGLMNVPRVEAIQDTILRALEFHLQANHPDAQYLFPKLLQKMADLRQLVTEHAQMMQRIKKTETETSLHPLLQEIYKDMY
# PPARγ [2] = target: T2, PPARγ (Homo sapiens, UniProt P37231); assay: cell-based; details: PPAR-GAL4 chimeric receptors, transiently transfected CHO-K1 cells, ia = inactive at 10 μM
# T2 sequence (P37231 232-505 limits assumed): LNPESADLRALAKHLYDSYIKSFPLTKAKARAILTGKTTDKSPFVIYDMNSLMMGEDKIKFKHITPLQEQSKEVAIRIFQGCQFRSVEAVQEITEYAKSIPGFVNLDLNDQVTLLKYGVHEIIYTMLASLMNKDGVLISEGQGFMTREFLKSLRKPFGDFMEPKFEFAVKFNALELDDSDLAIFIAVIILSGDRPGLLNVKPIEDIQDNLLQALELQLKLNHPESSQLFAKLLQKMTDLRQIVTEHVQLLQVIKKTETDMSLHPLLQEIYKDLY
# PPARα [3] = target: T3, PPARα (Homo sapiens, UniProt Q07869); assay: PPARα-GAL4 chimeric receptor transactivation in CHO-K1 cells; details: for EC50: read-out: Transactivation activity EC50 PPARα; for Transactivation activity EC50 PPARα: PPAR-GAL4 chimeric receptors, transiently transfected CHO-K1 cells, ia = inactive at 10 μM
# T3 sequence (Q07869 200-468 limits assumed): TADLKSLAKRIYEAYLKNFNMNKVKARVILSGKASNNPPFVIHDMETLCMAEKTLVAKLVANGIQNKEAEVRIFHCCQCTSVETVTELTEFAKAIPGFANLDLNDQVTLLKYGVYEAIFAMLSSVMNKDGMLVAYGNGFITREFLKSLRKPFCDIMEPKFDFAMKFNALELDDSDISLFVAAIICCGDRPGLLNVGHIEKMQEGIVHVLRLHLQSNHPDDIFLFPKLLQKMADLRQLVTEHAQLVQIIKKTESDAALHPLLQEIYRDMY
# PPARα [4] = target: T3, PPARα; assay: PPARα-GAL4 chimeric receptor transactivation in HEK-293 cells; details: PPAR-GAL4 chimeric receptors, transiently transfected HEK-293 cells; ia = inactive at 10 μM
# PPARγ [5] = target: T4, PPARγ (Homo sapiens, UniProt P37231); assay: cell-based; details: for EC50: read-out: Transactivation activity EC50 PPARγ
# T4 sequence (P37231 238-505 limits assumed): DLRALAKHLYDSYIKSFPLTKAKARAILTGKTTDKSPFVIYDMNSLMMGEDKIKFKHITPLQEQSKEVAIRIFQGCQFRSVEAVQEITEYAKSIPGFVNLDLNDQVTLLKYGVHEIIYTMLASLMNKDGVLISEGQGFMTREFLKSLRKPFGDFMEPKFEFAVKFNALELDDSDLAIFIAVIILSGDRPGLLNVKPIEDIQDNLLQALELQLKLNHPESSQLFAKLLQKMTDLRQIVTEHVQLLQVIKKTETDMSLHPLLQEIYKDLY
# PPARδ [6] = target: T5, PPARδ (Homo sapiens, UniProt Q03181); assay: cell-based; details: PPAR-GAL4 chimeric receptors, transiently transfected HEK-293 cells; ia = inactive at 10 μM; read-out: Transactivation activity EC50 PPARδ
# T5 sequence (Q03181 171-441 limits assumed): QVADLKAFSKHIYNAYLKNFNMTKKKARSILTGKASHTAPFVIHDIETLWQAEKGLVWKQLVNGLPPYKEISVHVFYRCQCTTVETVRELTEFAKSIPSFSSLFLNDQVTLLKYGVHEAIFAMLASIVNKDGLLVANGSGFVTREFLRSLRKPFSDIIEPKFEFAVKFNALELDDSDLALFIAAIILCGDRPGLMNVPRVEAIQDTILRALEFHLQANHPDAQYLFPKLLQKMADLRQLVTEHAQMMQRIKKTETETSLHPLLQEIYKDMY
# [7] = PPAR-GAL4 chimeric receptors, transiently transfected HEK-293 cells, ia = inactive at 10 μM
SMILES,Transactivation activity EC50 PPARδ (PPARδ [1]),Transactivation activity EC50 PPARγ (PPARγ [2]),EC50 (PPARα [3]) [nM],EC50 (PPARα [4]) [nM],EC50 (PPARδ [6]) [nM],other results
CCC(Cc1ccc(OC)c(C(=O)Nc2ccc(C(F)(F)F)cc2)c1)C(=O)O (stereo not shown) [Compound 24],ia^(b),ia,6000,,,
CCC(Cc1ccc(OC)c(C(=O)NCCc2ccc(C(F)(F)F)cc2)c1)C(=O)O (stereo not shown) [Compound 25],,ia,740,,,EC50 (PPARδ [1]): 1500 nM
CCC(Cc1ccc(OC)c(C(=O)N(C)Cc2ccc(C(F)(F)F)cc2)c1)C(=O)O (stereo not shown) [Compound 26],ia,ia,,,,Transactivation activity EC50 PPARα (PPARα [3]): ia
CCC(Cc1ccc(OC)c(NC(=O)Cc2ccc(C(F)(F)F)cc2)c1)C(=O)O (stereo not shown) [Compound 27],ia,ia,130,,,
CCC(Cc1ccc(OC)c(NC(=O)Nc2ccc(C(F)(F)F)cc2)c1)C(=O)O (stereo not shown) [Compound 28],ia,ia,,,,Transactivation activity EC50 PPARα (PPARα [3]): ia
CCC(Cc1ccc(OC)c(CC(=O)Nc2ccc(C(F)(F)F)cc2)c1)C(=O)O (stereo not shown) [Compound 29],ia,ia,20,,,
CCC(Cc1ccc(OC)c(C(=O)CCc2ccc(C(F)(F)F)cc2)c1)C(=O)O (stereo not shown) [Compound 30],ia,,320,,,EC50 (PPARγ [2]; read-out: Transactivation activity EC50 PPARγ): 7400 nM
CCC(Cc1ccc(OC)c(CCCc2ccc(C(F)(F)F)cc2)c1)C(=O)O (stereo not shown) [Compound 31],,ia,860,,,EC50 (PPARδ [1]): 640 nM
CCC(Cc1ccc(OC)c(OCCc2ccc(C(F)(F)F)cc2)c1)C(=O)O (stereo not shown) [Compound 32],,ia,680,,,EC50 (PPARδ [1]): 400 nM
CCC(Cc1ccc(OC)c(CNCc2ccc(C(F)(F)F)cc2)c1)C(=O)O (stereo not shown) [Compound 34],,ia,4900,,,EC50 (PPARδ [1]): 8000 nM
CCC(Cc1ccc(OC)c(CNC(=O)c2ccc(C(F)(F)F)c(F)c2)c1)C(=O)O (stereo not shown) [Compound 39],,,,11,51,EC50 (PPARγ [5]; [7]): 6000 nM
CCC(Cc1ccc(OC)c(CNC(=O)c2ccc(F)c(C(F)(F)F)c2)c1)C(=O)O (stereo not shown) [Compound 40],,,,250,2000,Transactivation activity EC50 PPARγ (PPARγ [5]; [7]): ia^(b)
CC[C@@H](Cc1ccc(OC)c(CNC(=O)c2ccc(C(F)(F)F)c(F)c2)c1)C(=O)O [Compound 42],,,,12,23,EC50 (PPARγ [5]): 4900 nM
CC[C@H](Cc1ccc(OC)c(CNC(=O)c2ccc(C(F)(F)F)c(F)c2)c1)C(=O)O [Compound 43],,,,150,840,Transactivation activity EC50 PPARγ (PPARγ [5]; [7]): ia^(b)
CCOc1ccc(CC(CC)C(=O)O)cc1CNC(=O)c1ccc(C(F)(F)F)cc1 (stereo not shown) [Compound 50],,,,12,15,EC50 (PPARγ [5]; [7]): 1800 nM
CCC(Cc1ccc(OCc2ccccc2)c(CNC(=O)c2ccc(C(F)(F)F)cc2)c1)C(=O)O (stereo not shown) [Compound 54],,,,,110,EC50 (PPARγ [5]): 6200 nM
COc1ccc(CCC(=O)O)cc1CNC(=O)c1ccc(C(F)(F)F)cc1 [Compound 58],,,,210,3000,
COc1ccc(CC(C)C(=O)O)cc1CNC(=O)c1ccc(C(F)(F)F)cc1 (stereo not shown) [Compound 59],,,,19,210,
"COc1ccc(CC2SC(=O)NC2=O)cc1C(=O)NCc1ccc(C(F)(F)F)cc1 (stereo not shown) [KRP-297, reference compound]",ia,,,,,
